Conditions in all cases: two to four hours at 37° C.; for IC50: Homo sapiens, 4 h
Test [1] has as its system P-P70S6K (T389). Put plainly: Cell based AlphaLISA assay, inhibition of P-P70S6K (T389) in MDA-MB-468 cells (mTORC1 substrate). The method, then: (§1) Cell Based AlphaLISA Assays For Determining IC50 For Inhibition of P-Akt (S473), P-4E-BP1(T37/46), and P-P70S6K (T389) in MDA-MB-468 Cells
(§2) mTOR Kinase Cellular Assay
(§3) To measure functional activity of mTORC1 and mTORC2 in cells the phosphorylation of 4EBPT (Thr37/46) and P70S6K (Thr389), and AKT1/2/3 (Ser473) was monitored using AlphaLisa SureFire Ultra Kits (Perkin Elmer). […] Incubations were terminated by removal of the assay buffer and addition of lysis buffer provided with the assay kit. Samples were processed according to the manufacturer's instructions. The Alpha signal from the respective phosphoproteinswas measured in duplicate using a microplate reader (Envision, Perkin-Elmer or Spectramax M5, Molecular Devices). Inhibitor concentration response curves were analyzed using normalized IC50 regression curve filling with control based normalization.
For orientation: In Alpha technology, singlet oxygen from a donor bead excites a nearby acceptor bead.

Test [2] concerns P-4E-BP1 (T37/46). Nature of the test: Cell based AlphaLISA assay, inhibition of P-4E-BP1 (T37/46) in MDA-MB-468 cells (mTORC1 substrate). The method, then: as §1, §2, §3
Test [3] deals with P-Akt (S473). Nature of the test: Cell based AlphaLISA assay, inhibition of P-Akt (S473) in MDA-MB-468 cells (mTORC2 substrate). The method, then: as §1, §2, §3
The mark [4] stands for this setting: AlphaLisa, read-out: pIC50 for Inhibition of mTORC1 and mTORC2 Substrate Phosphorylation p-P70S6K-(T389) (converted).
The mark [5] stands for this setting: AlphaLisa, read-out: pIC50 for Inhibition of mTORC1 and mTORC2 Substrate Phosphorylation P-4E-BP1-(T37/46) (converted).
Where [6] appears, read: AlphaLisa, read-out: pIC50 for Inhibition of mTORC1 and mTORC2 Substrate Phosphorylation p-AKT1/2/3-(S473) (converted).

Read-outs that look alike come from different tables or passages of the source.

With `CO[C@H]1C[C@@H]2CC[C@@H](C)[C@@](O)(O2)C(=O)C(=O)N2CCCC[C@H]2C(=O)O[C@H]([C@H](C)C[C@@H]2CC[C@@H](OC(=O)NCCOCCOCCN3C[C@@H]4C[C@H]3CN4CCOCCOCCOCCOCCC(=O)N3CCc4cc(Cn5nc(-c6ccc7oc(N)nc7c6)c6c(N)ncnc65)ccc4C3)[C@H](OC)C2)C[C@@H](O)[C@H](C)/C=C(\C)[C@@H](O)[C@@H](OC)C(=O)[C@H](C)C[C@H](C)/C=C/C=C/C=C/1C` [Example 144], the IC50 was < 1 nM in test [1] (setting [4]), < 3.16 nM in test [2] (setting [5]) and 3.16 to 31.6 nM in test [3] (setting [6]).
For `CO[C@H]1C[C@@H]2CC[C@@H](C)[C@@](O)(O2)C(=O)C(=O)N2CCCC[C@H]2C(=O)O[C@H]([C@H](C)C[C@@H]2CC[C@@H](OC(=O)NCc3cnc(N4CCN(c5ncc(C(=O)N(C)CCOCCOCCOCCOCCC(=O)N6CCc7cc(Cn8nc(-c9ccc%10oc(N)nc%10c9)c9c(N)ncnc98)ccc7C6)c(N)n5)CC4)nc3)[C@H](OC)C2)C[C@@H](OC)[C@H](C)/C=C(\C)[C@@H](O)[C@@H](OC)C(=O)[C@H](C)C[C@H](C)/C=C/C=C/C=C/1C` [Example 107], the “pIC50 for Inhibition of mTORC1 and mTORC2 Substrate Phosphorylation p-P70S6K-(T389)” value in test [1] (AlphaLisa) is recorded as “+++ (≥9)”. For the same molecule, in test [2] (AlphaLisa), the “pIC50 for Inhibition of mTORC1 and mTORC2 Substrate Phosphorylation P-4E-BP1-(T37/46)” value is listed as “− (<6)”. Besides, the “pIC50 for Inhibition of mTORC1 and mTORC2 Substrate Phosphorylation p-AKT1/2/3-(S473)” value in test [3] (AlphaLisa) is listed as “− (<6)”.
With `CO[C@H]1C[C@@H]2CC[C@@H](C)[C@@](O)(O2)C(=O)C(=O)N2CCCC[C@H]2C(=O)O[C@H]([C@H](C)C[C@@H]2CC[C@@H](OC(=S)NCCOCCOCCOCCOCCOCCOCCOCCOCCC(=O)N3CCc4cc(Cn5nc(-c6ccc7oc(N)nc7c6)c6c(N)ncnc65)ccc4C3)[C@H](OC)C2)C[C@@H](O)[C@H](C)/C=C(\C)[C@@H](O)[C@@H](OC)C(=O)[C@H](C)C[C@H](C)/C=C/C=C/C=C/1C` [Example 77], the “pIC50 for Inhibition of mTORC1 and mTORC2 Substrate Phosphorylation p-P70S6K-(T389)” value in test [1] (AlphaLisa) is “+++ (≥9)”. For the same molecule, the “pIC50 for Inhibition of mTORC1 and mTORC2 Substrate Phosphorylation P-4E-BP1-(T37/46)” value in test [2] (AlphaLisa) was “++ (8.5 > pIC50 ≥ 7.5)”. For the same molecule, the “pIC50 for Inhibition of mTORC1 and mTORC2 Substrate Phosphorylation p-AKT1/2/3-(S473)” value in test [3] (AlphaLisa) is “+ (7.5 > pIC50 ≥ 6.0)”.
Take `CO[C@H]1C[C@@H]2CC[C@@H](C)[C@@](O)(O2)C(=O)C(=O)N2CCCC[C@H]2C(=O)O[C@H]([C@H](C)C[C@@H]2CC[C@@H](OC(=S)NCCOCCOCCOCCOCCOCCOCCOCCOCCC(=O)N3CCc4cc(Cn5nc(-c6ccc7oc(N)nc7c6)c6c(N)ncnc65)ccc4C3)[C@H](OC)C2)C[C@@H](OC)[C@H](C)/C=C(\C)[C@@H](O)[C@@H](OC)C(=O)[C@H](C)C[C@H](C)/C=C/C=C/C=C/1C` [Example 78]: the “pIC50 for Inhibition of mTORC1 and mTORC2 Substrate Phosphorylation p-P70S6K-(T389)” value in test [1] (AlphaLisa) was “+++ (≥9)”. The “pIC50 for Inhibition of mTORC1 and mTORC2 Substrate Phosphorylation P-4E-BP1-(T37/46)” value in test [2] (AlphaLisa) is “+++ (≥8.5)”. Further, in test [3] (AlphaLisa), the “pIC50 for Inhibition of mTORC1 and mTORC2 Substrate Phosphorylation p-AKT1/2/3-(S473)” value is recorded as “+++ (≥8.5)”.
In the case of `CO[C@H]1C[C@@H]2CC[C@@H](C)[C@@](O)(O2)C(=O)C(=O)N2CCCC[C@H]2C(=O)O[C@H]([C@H](C)C[C@@H]2CC[C@@H](OC(=O)NCCOCCOCCOCCOCCOCCOCCOCCOCCC(=O)NCc3ccc(Cn4nc(-c5ccc6oc(N)nc6c5)c5c(N)ncnc54)cc3)[C@H](OC)C2)CC(=O)[C@H](C)/C=C(\C)[C@@H](O)[C@@H](OC)C(=O)[C@H](C)C[C@H](C)/C=C/C=C/C=C/1C` [Example 35], the IC50 in test [1] (setting [4]) is < 1 nM; in test [2] (setting [5]), < 3.16 nM; in test [3] (setting [6]), 3.16 to 31.6 nM.
On the same counts, the results for `CO[C@H]1C[C@@H]2CC[C@@H](C)[C@@](O)(O2)C(=O)C(=O)N2CCCC[C@H]2C(=O)O[C@H]([C@H](C)C[C@@H]2CC[C@@H](OC(=O)NCc3cnc(N4CCN(C(=O)CCOCCOCCN5CCN(c6ncc(C(=O)N7CCc8cc(Cn9nc(-c%10ccc%11[nH]ccc%11c%10)c%10c(N)ncnc%109)ccc8C7)cn6)CC5)CC4)nc3)[C@H](OC)C2)CC(=O)[C@H](C)/C=C(\C)[C@@H](O)[C@@H](OC)C(=O)[C@H](C)C[C@H](C)/C=C/C=C/C=C/1C` [Example 126] are < 1 nM, 3.16 to 31.6 nM and > 1000 nM.
As for `CO[C@H]1C[C@@H]2CC[C@@H](C)[C@@](O)(O2)C(=O)C(=O)N2CCCC[C@H]2C(=O)O[C@H]([C@H](C)C[C@@H]2CC[C@@H](OC(=O)NCc3cnc(N4CCN(CCOCCN5CCN(c6ncc(C(=O)N7CCc8cc(Cn9nc(-c%10ccc%11[nH]ccc%11c%10)c%10c(N)ncnc%109)ccc8C7)cn6)CC5)CC4)nc3)[C@H](OC)C2)CC(=O)[C@H](C)/C=C(\C)[C@@H](O)[C@@H](OC)C(=O)[C@H](C)C[C@H](C)/C=C/C=C/C=C/1C` [Example 130], the values for the IC50 in test [1] (setting [4]), in test [2] (setting [5]) and in test [3] (setting [6]) were < 1 nM, < 3.16 nM and > 1000 nM, respectively.
Turning to `CO[C@H]1C[C@@H]2CC[C@@H](C)[C@@](O)(O2)C(=O)C(=O)N2CCCC[C@H]2C(=O)O[C@H]([C@H](C)C[C@@H]2CC[C@@H](OC(=O)NCCOCCOCCOCCOCCOCCOCCOCCOCCC(=O)NCCS(=O)(=O)c3ccc(C(=O)N4CCOc5ccc(-c6ccc(N)nc6)cc5C4)c(C)c3)[C@H](OC)C2)C[C@@H](OC)[C@H](C)/C=C(\C)[C@@H](O)[C@@H](OC)C(=O)[C@H](C)C[C@H](C)/C=C/C=C/C=C/1C` [Example 42], the IC50 was < 1 nM in test [1] (setting [4]), < 3.16 nM in test [2] (setting [5]) and 3.16 to 31.6 nM in test [3] (setting [6]).
Regarding `CO[C@H]1C[C@@H]2CC[C@@H](C)[C@@](O)(O2)C(=O)C(=O)N2CCCC[C@H]2C(=O)O[C@H]([C@H](C)C[C@@H]2CC[C@@H](OC(=O)NCCOCCOCCOCCOCCOCCOCCOCCOCCC(=O)NCc3ccc(Cn4nc(-c5ccc6oc(N)nc6c5)c5c(N)ncnc54)cc3)[C@H](OC)C2)C[C@@H](O)[C@H](C)/C=C(\C)[C@@H](O)[C@@H](OC)C(=O)[C@H](C)C[C@H](C)/C=C/C=C/C=C/1C` [Example 36], the IC50 in test [1] (setting [4]) was < 1 nM; in test [2] (setting [5]), < 3.16 nM; in test [3] (setting [6]), > 1000 nM.
As for `CO[C@H]1C[C@@H]2CC[C@@H](C)[C@@](O)(O2)C(=O)C(=O)N2CCCC[C@H]2C(=O)O[C@H]([C@H](C)C[C@@H]2CC[C@@H](OC(=S)NCCOCCOCCOCCOCCOCCOCCOCCOCCC(=O)NCc3ccc(Cn4nc(-c5ccc6oc(N)nc6c5)c5c(N)ncnc54)cc3)[C@H](OC)C2)C[C@@H](O)[C@H](C)/C=C(\C)[C@@H](O)[C@@H](OC)C(=O)[C@H](C)C[C@H](C)/C=C/C=C/C=C/1C` [Example 83], in test [1] (AlphaLisa), the “pIC50 for Inhibition of mTORC1 and mTORC2 Substrate Phosphorylation p-P70S6K-(T389)” value is recorded as “+++ (≥9)”. For the same molecule, the “pIC50 for Inhibition of mTORC1 and mTORC2 Substrate Phosphorylation P-4E-BP1-(T37/46)” value in test [2] (AlphaLisa) is reported as “+++ (≥8.5)”. In addition, the “pIC50 for Inhibition of mTORC1 and mTORC2 Substrate Phosphorylation p-AKT1/2/3-(S473)” value in test [3] (AlphaLisa) is reported as “++ (8.5 > pIC50 ≥ 7.5)”.
With `CO[C@H]1C[C@@H]2CC[C@@H](C)[C@@](O)(O2)C(=O)C(=O)N2CCCC[C@H]2C(=O)O[C@H]([C@H](C)C[C@@H]2CC[C@@H](O)[C@H](OC)C2)CC(=O)[C@H](C)/C=C(\C)[C@@H](O)[C@@H](OC)C(=O)[C@H](C)C[C@H](C)/C=C/C=C/C=C/1C` [Rapamycin, (3S,6R,7E,9R,10R,12R,14S,15E,17E,19E,21S,23S,26R,27R,34aS)-9,10,12,13,14,21,22,23,24,25,26,27,32,33,34,34a-hexadecahydro-9,27-dihydroxy-3-[(1R)-2-[(1S,3R,4R)-4-hydroxy-3-methoxycyclohexyl]-1-methylethyl]-10,21-dimethoxy-6,8,12,14,20,26-hexamethyl-23,27-epoxy-3H-pyrido[2,1-c][1,4]-oxaazacyclohentriacontine-1,5,11,28,29(4H,6H,31H)-pentone, reference compound], the IC50 is 0.2 nM in test [1] (AlphaLisa SureFire Ultra, read-out: IC50 for Inhibition of mTORC1 and mTORC2 Substrate Phosphorylation (nM) p-P7056K-(T389)); > 1000 nM in test [2] (AlphaLisa SureFire Ultra, read-out: IC50 for Inhibition of mTORC1 and mTORC2 Substrate Phosphorylation (nM) p-4E-BP1-(T37/46)); > 1000 nM in test [3] (AlphaLisa SureFire Ultra, read-out: IC50 for Inhibition of mTORC1 and mTORC2 Substrate Phosphorylation (nM) p-AKT1/2/3-(5473)).
For the molecule `CO[C@H]1C[C@@H]2CC[C@@H](C)[C@@](O)(O2)C(=O)C(=O)N2CCCC[C@H]2C(=O)O[C@H]([C@H](C)C[C@@H]2CC[C@@H](OC(=O)N3CCc4nc(N5CCN(c6ncc(C(=O)NCCOCCOCCOCCOCCC(=O)N7CCc8cc(Cn9nc(-c%10cnc%11[nH]ccc%11c%10)c%10c(N)ncnc%109)ccc8C7)c(N)n6)CC5)ncc4C3)[C@H](OC)C2)CC(=O)[C@H](C)/C=C(\C)[C@@H](O)[C@@H](OC)C(=O)[C@H](C)C[C@H](C)/C=C/C=C/C=C/1C` [Example 97], the IC50 is < 1 nM in test [1] (setting [4]), < 3.16 nM in test [2] (setting [5]) and 3.16 to 31.6 nM in test [3] (setting [6]).
As for `CO[C@H]1C[C@@H]2CC[C@@H](C)[C@@](O)(O2)C(=O)C(=O)N2CCCC[C@H]2C(=O)O[C@H]([C@H](C)C[C@@H]2CC[C@@H](OC(=O)N3CCc4nc(N5CCN(CCOCCN6CCN(c7ncc(C(=O)N8CCc9cc(Cn%10nc(-c%11ccc%12oc(N)nc%12c%11)c%11c(N)ncnc%11%10)ccc9C8)cn7)CC6)CC5)ncc4C3)[C@H](OC)C2)C[C@@H](OC)[C@H](C)/C=C(\C)[C@@H](O)[C@@H](OC)C(=O)[C@H](C)C[C@H](C)/C=C/C=C/C=C/1C` [Example 129], the IC50 was < 1 nM in test [1] (setting [4]), < 3.16 nM in test [2] (setting [5]) and > 1000 nM in test [3] (setting [6]).

These data come from patent publication US10980889B1 (Revolution Medicines, Inc., priority 2018, dated 2021).
